Each block holds one molecule with its values, some of them ahead of it. Bridge positions count the residues as written; N and C are the ends. Square brackets hold non-standard residues; d marks the D form. Peptide text beside a SMILES is read from it. S5 = C=CCCC[C@](C)(N)C(=O)O; Nle = CCCC[C@H](N)C(=O)O
Experiments:
[1] = molecular target: T1, GST-tagged p300 CH1 domain (AAs 302-423) / HIF1α (AAs 788-826) (Homo sapiens, UniProt Q09472); experiment: Biolayer interferometry competition for binding to p300 CH1 domain; conditions: 300 nM p300 CH1
T1 construct: GST-tagged p300 CH1 domain (AAs 302-423)
T1 sequence (Q09472 302-423): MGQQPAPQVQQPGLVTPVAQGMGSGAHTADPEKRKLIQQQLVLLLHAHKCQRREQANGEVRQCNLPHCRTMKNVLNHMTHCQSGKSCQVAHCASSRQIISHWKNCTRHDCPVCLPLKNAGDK
Description: (§1) Biolayer inferometry (ForteBio, Menlo Park Calif.) was used to measure competition of SP-6 for HIF1α (AAs 788-826). Biotinylated HIF1α peptide was captured on […] biosensor tip. The association of 300 nM GST-tagged p300 CH1 domain (AAs 302-423) in the presence or absence of varying concentrations of SP-6 was measured for 240 s. Dissociation was monitored for a minimum of 200 s in the absence of free p300 or stapled peptide. Binding of p300 to biosensor immobilized HIF1α target was analyzed with instrument software and total response (R) was proportional to binding.
Inhibition of p300 binding was calculated as % inhibition=[…]. A concentration of 10 μM SP-6 blocked 99% of the total binding. The inhibition was dose-dependent, with 2 μM inhibiting 50% of p300/HIF1α binding.

[2] = molecular target: T2, His6-tagged p300 (AA 323-423) (UniProt Q09472 323-423); experiment: TR-FRET HIF1a/p300 displacement; grade = IC50 <=200 nM
T2 construct: range 323-423; also called p300-CH; not shown: His6 tag
T2 sequence (Q09472 323-423 limits assumed): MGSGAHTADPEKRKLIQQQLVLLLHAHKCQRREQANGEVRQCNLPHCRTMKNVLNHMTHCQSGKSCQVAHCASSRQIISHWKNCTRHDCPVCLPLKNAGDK
Description: The ability of peptides to displace HIF1α c-terminal trans-activation domain from p300-CH was measured by a TR FRET assay. […] The complex was diluted to 300 nM final in complete assay media and competitor peptides were added. The complete assay media contained 150 mM NaCl (Sigma +S5150 or equivalent), 20 mM HEPES pH 7.4 (Boston Bioproducts, Ashland, Mass.; #BB-2076), 7.5 mM CHAPS (Thermo #28300 or equivalent), and 1 mM DTT. Protein and peptide were incubated at room temperature for 1 hour before the addition of anti-Flag-K and anti-6×HIS-D2 (CisBio, Bedford Mass.) HTRF reconstitution buffer (50 mM Phosphate pH 7, 0.8 Potassium Flouride, BSA 0.2%)¹ to a final concentration of 0.5 μM and 4 nM respectively. The reaction continued for an additional two hours at room temperature. The reaction was read on a TECAN F500 plate reader with settings recommended by CisBio. The ratio of donor to acceptor fluorescence was calculated. The resulting data was analyzed with Graphpad Prism 5.0. IC50 values were calculated for both proteins using the One Site Fit-LogIC50 equation and presented in the column “IC₅₀ (nM) (HIF1α_p300 Displacement+CHAPS)” of Table 6. ¹ Cisbio USA, Bedford, Mass.; 61HISDLB (lot 007A), 61FG2KLB (024A), HTRF Buffer (62RB3RDF)

[3] = molecular target: T3, GST-tagged p300 CH1 domain (AAs 302-423) (UniProt Q09472 302-423); experiment: BLI competition, 300 nM GST-p300 CH1 on immobilised HIF1α 788-826
T3 construct: range 302-423; not shown: GST tag
T3 sequence (Q09472 302-423 limits assumed): as the sequence (Q09472 302-423) above
Description: as §1, with “Biotinylated” for “Biolayer inferometry (ForteBio, Menlo Park Calif.) was used to measure competition of SP-6 for HIF1α (AAs 788-826). Biotinylated”
A concentration of 10 μM SP-6 blocked 99% of the total binding. The inhibition was dose-dependent, with 2 μM inhibiting 50% of p300/HIF1α binding.

inhibition at 2 µM ([1]; 2 μM): 50%
inhibition at 10 µM ([1]; 10 μM): 99%
Molecule: CCCC[C@H](NC(=O)[C@H](CC(C)C)NC(=O)[C@@H](NC(=O)[C@H](CCC(=O)O)NC(=O)[C@H](CCC(=O)O)NC(=O)[C@H](CC(=O)O)NC(=O)[C@@H](NC(=O)[C@H](Cc1ccccc1)NC(C)=O)[C@@H](C)CC)C(C)C)C(=O)N[C@@]1(C)CCCC=CCCC[C@@](C)(C(=O)N[C@@H](CCCC)C(=O)N[C@@H](C)C(=O)N[C@@H](CC(C)C)C(=O)N[C@@H](CC(=O)O)C(=O)N[C@@H](CCCNC(=N)N)C(=O)N[C@H](C(N)=O)[C@@H](C)CC)NC(=O)[C@H]([C@@H](C)CC)NC(=O)[C@H](C(C)C)NC(=O)[C@H](CC(C)C)NC1=O [SP-6] (Ac-FIDEEVL[Nle][S5]LVI[S5][Nle]ALDRI-NH2; staple 9-13)

IC50 [2]: ≤ 200 nM
IC50 [3]: 2000 nM
B1: SP-6 (peptide)
peptide: Ac-FIDEEVL[Nle][S5]LVI[S5][Nle]ALDRI-NH2
modifications: staple 9-13
SMILES: CCCC[C@H](NC(=O)[C@H](CC(C)C)NC(=O)[C@@H](NC(=O)[C@H](CCC(=O)O)NC(=O)[C@H](CCC(=O)O)NC(=O)[C@H](CC(=O)O)NC(=O)[C@@H](NC(=O)[C@H](Cc1ccccc1)NC(C)=O)[C@@H](C)CC)C(C)C)C(=O)N[C@@]1(C)CCCC=CCCC[C@@](C)(C(=O)N[C@@H](CCCC)C(=O)N[C@@H](C)C(=O)N[C@@H](CC(C)C)C(=O)N[C@@H](CC(=O)O)C(=O)N[C@@H](CCCNC(=N)N)C(=O)N[C@H](C(N)=O)[C@@H](C)CC)NC(=O)[C@H]([C@@H](C)CC)NC(=O)[C@H](C(C)C)NC(=O)[C@H](CC(C)C)NC1=O

Reference: patent US20190225650A1, “PEPTIDOMIMETIC MACROCYCLES AND USE THEREOF IN REGULATING HIF1ALPHA” (AILERON THERAPEUTICS, INC., priority 2013, published 2019)
